From the NIST ThermoML archive (doi:10.1021/je0502546)

Columns and labels:
[1] = xn = mol fraction of the nth substance listed; conditions: 101 kPa, Liquid; for viscosity: Capillary tube (Ostwald / Ubbelohde) method
[2] = refractive index (Na D-line) (dimensionless); xn = mol fraction of the nth substance listed; conditions: 101 kPa, Liquid, Standard Abbe refractometry
[3] = refractive index (Na D-line) (dimensionless); conditions: 101.33 kPa, Liquid, Standard Abbe refractometry
[4] = 101 kPa, Liquid; for viscosity: Capillary tube (Ostwald / Ubbelohde) method

COc1ccccc1 [anisole] + CCCc1ccccc1
x1 = 1
Conditions | mass density, [1] [kg/m3] | refractive index, [2] | viscosity, [1] [mPa·s]
293.15 K | 993.8 | 1.5177 | 1.084
303.15 K | 984.37 | 1.5124 | 0.931

CCCCc1ccccc1 [butylbenzene] + COc1ccccc1
Conditions | mass density, [1] [kg/m3] | refractive index, [2] | viscosity, [1] [mPa·s]
293.15 K, x2 = 0 | 861.26 | 1.4895 | 1.034
293.15 K, x2 = 0.1238 | 873.01 | 1.4923 | 1.005
293.15 K, x2 = 0.225 | 884.01 | 1.4948 | 0.985
293.15 K, x2 = 0.3541 | 898.83 | 1.498 | 0.971
293.15 K, x2 = 0.48 | 914.4 | 1.5014 | 0.965
293.15 K, x2 = 0.581 | 927.77 | 1.5042 | 0.97
293.15 K, x2 = 0.67 | 940.23 | 1.5068 | 0.983
293.15 K, x2 = 0.7672 | 954.65 | 1.5097 | 1.002
293.15 K, x2 = 0.8483 | 967.5 | 1.5123 | 1.027
293.15 K, x2 = 0.9201 | 979.53 | 1.5148 | 1.052
303.15 K, x2 = 0 | 852.23 | 1.4845 | 0.893
303.15 K, x2 = 0.1238 | 865.04 | 1.4872 | 0.872
303.15 K, x2 = 0.225 | 875.92 | 1.4896 | 0.855
303.15 K, x2 = 0.3541 | 890.71 | 1.4927 | 0.841
303.15 K, x2 = 0.48 | 906.13 | 1.4961 | 0.837
303.15 K, x2 = 0.581 | 919.36 | 1.4989 | 0.842
303.15 K, x2 = 0.67 | 931.73 | 1.5014 | 0.851
303.15 K, x2 = 0.7672 | 946.15 | 1.5043 | 0.867
303.15 K, x2 = 0.8483 | 958.84 | 1.5068 | 0.885
303.15 K, x2 = 0.9201 | 970.6 | 1.5093 | 0.905

CCCCc1ccccc1 [butylbenzene]
Conditions | mass density, [4] [kg/m3] | refractive index, [3] | viscosity, [4] [mPa·s]
293.15 K | 861.26 | 1.4895 | 1.034
303.15 K | 852.23 | 1.4845 | 0.893
